From patent publication US8999976B2, “Modulators of cystic fibrosis transmembrane conductance regulator” (Vertex Pharmaceuticals Incorporated, priority 2008, dated 2015)

Target: T1, ΔF508-CFTR (Homo sapiens, UniProt P13569, DEL508-508)
T1 construct: expressed in transfected cells
Test: Membrane potential optical assay for potentiators of ΔF508-CFTR (FLIPR III, voltage sensing dyes)
Assay type: cell-based
Conditions: for Emax: NIH3T3, 100% efficacy is the maximum response obtained with 4-methyl-2-(5-phenyl-1H-pyrazol-3-yl)phenol, ΔF508 CFTR NIH 3T3 cells; for EC50: temperature-corrected ΔF508 CFTR NIH 3T3 cells, forskolin activation
Excerpt: The assay utilizes fluorescent voltage sensing dyes to measure changes in membrane potential using a fluorescent plate reader (e.g., FLIPR III, Molecular Devices, Inc.) as a readout for increase in functional ΔF508-CFTR in NIH 3T3 cells.
To identify potentiators of ΔF508-CFTR, a double-addition HTS assay format was developed. This HTS assay utilizes fluorescent voltage sensing dyes to measure changes in membrane potential on the FLIPR III as a measurement for increase in gating (conductance) of ΔF508 CFTR in temperature-corrected ΔF508 CFTR NIH 3T3 cells.
Solutions • Bath Solution #1: (in mM) NaCl 160, KCl 4.5, CaCl2 2, MgCl2 1, HEPES 10, pH 7.4 with NaOH. • Chloride-Free Bath Solution: Chloride Salts in Bath Solution #1 are Substituted with Gluconate Salts.
NIH3T3 mouse fibroblasts stably expressing ΔF508-CFTR are used for optical measurements of membrane potential. The cells are maintained at 37° C. in 5% CO2 and 90% humidity in Dulbecco's modified Eagle's medium supplemented with 2 mM glutamine, 10% fetal bovine serum, 1×NEAA, β-ME, 1×pen/strep, and 25 mM HEPES in 175 cm^2 culture flasks. For all optical assays, the cells were seeded at ˜20,000/well in 384-well matrigel-coated plates and cultured for 2 hrs at 37° C. before culturing at 27° C. for 24 hrs. for the potentiator assay. For the correction assays, the cells are cultured at 27° C. or 37° C. with and without compounds for 16-24 hours. Electrophysiological Assays for assaying ΔF508-CFTR modulation properties of compounds.

T1 sequence (P13569 with tags, fused parts or gaps DEL508-508): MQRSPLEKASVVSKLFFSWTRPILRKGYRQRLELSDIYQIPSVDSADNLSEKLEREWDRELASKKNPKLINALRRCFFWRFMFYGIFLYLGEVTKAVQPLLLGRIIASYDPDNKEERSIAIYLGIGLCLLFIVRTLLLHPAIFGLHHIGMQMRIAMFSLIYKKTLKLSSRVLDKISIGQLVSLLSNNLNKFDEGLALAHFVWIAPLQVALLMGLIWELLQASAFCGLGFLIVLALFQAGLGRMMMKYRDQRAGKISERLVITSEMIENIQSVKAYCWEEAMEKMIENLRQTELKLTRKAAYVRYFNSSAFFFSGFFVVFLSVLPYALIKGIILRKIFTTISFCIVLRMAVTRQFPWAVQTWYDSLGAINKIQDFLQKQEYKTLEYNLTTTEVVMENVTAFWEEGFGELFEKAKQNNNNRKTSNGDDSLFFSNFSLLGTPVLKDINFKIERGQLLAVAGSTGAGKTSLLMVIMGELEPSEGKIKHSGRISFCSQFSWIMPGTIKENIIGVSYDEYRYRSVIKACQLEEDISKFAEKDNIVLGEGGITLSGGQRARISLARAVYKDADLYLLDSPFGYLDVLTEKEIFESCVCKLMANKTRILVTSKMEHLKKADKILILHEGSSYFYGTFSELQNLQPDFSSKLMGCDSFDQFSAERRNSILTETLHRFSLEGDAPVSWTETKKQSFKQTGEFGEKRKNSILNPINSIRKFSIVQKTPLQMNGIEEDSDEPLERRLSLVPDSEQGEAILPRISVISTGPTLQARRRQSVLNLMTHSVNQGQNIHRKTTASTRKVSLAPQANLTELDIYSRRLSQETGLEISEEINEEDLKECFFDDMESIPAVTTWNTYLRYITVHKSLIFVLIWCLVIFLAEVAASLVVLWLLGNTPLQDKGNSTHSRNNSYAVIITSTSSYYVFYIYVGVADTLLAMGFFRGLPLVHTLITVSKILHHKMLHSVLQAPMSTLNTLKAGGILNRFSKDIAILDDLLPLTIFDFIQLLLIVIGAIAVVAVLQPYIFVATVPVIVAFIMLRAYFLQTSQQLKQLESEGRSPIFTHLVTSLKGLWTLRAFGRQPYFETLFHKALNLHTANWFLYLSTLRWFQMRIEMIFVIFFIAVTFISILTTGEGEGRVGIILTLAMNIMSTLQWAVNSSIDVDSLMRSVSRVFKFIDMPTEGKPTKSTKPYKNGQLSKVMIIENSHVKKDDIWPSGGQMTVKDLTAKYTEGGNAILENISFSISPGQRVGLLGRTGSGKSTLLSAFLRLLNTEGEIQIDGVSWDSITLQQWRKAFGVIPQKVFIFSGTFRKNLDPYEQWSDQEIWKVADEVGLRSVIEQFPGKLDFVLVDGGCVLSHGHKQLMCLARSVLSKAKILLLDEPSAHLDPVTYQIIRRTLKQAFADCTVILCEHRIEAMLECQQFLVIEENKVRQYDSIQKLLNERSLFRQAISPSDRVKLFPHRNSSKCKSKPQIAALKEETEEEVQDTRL

Compound	Emax [%]	EC50 [µM]
COc1ccc2c(c1)OC(C(=O)Nc1ccc(C(C)(C)C)c(O)c1)CN2 (centres unmarked) [Compound 1]	< 25	5 to 20
O=C(Nc1ccc(C(F)(F)F)c(O)c1)C1CNc2ccccc2O1 (centres unmarked) [Compound 5]	< 25	5 to 20
CCN1CCN(c2cc(C3CCCC3)c(O)cc2NC(=O)C2CNc3cc(C#N)ccc3O2)CC1 (centres unmarked) [Compound 10]	< 25	5 to 20
N#Cc1ccc2c(c1)NCC(C(=O)Nc1cc(O)c(C3CCCC3)cc1C1=CCNCC1)O2 (centres unmarked) [Compound 11, 6-cyano-N-(4-cyclopentyl-5-hydroxy-2-(1,2,3,6-tetrahydropyridin-4-yl)phenyl)-3,4-dihydro-2H-benzo[b][1,4]oxazine-2-carboxamide]	25 to 100	5 to 20
COc1ccc2c(c1)NCC(C(=O)Nc1ccc(C(C)(C)C)c(O)c1)O2 (centres unmarked) [Compound 14]	< 25	5 to 20
COc1cc(NC(=O)C2CNc3ccccc3O2)ccc1-n1c(C)ccc1C (centres unmarked) [Compound 28]	25 to 100	5 to 20
CN1CCN(c2cc(C3CCCC3)c(O)cc2NC(=O)C2CNc3cc(C#N)ccc3O2)CC1 (centres unmarked) [Compound 29]	< 25	5 to 20
O=C(Nc1ccc2c(C(F)(F)F)c[nH]c2c1)C1CNc2ccccc2O1 (centres unmarked) [Compound 30]	25 to 100	5 to 20
CC(C)(C)c1ccc(NC(=O)C2CNc3ccc(F)cc3O2)cc1O (centres unmarked) [Compound 35]	25 to 100	< 5
Cc1cc(C#CCN(C)C)c(NC(=O)C2CNc3ccccc3O2)cc1F (centres unmarked) [Compound 36]	25 to 100	5 to 20
CN(C)CC#Cc1cc(C2CCCC2)c(O)cc1NC(=O)[C@@H]1CNc2ccccc2O1 [Compound 37]	25 to 100	< 5
CN(C)CCCc1cc(C2CCCC2)c(O)cc1NC(=O)C1CNc2cc(OC(F)(F)F)ccc2O1 (centres unmarked) [Compound 38, N-(4-cyclopentyl-2-(3-(dimethylamino)propyl)-5-hydroxyphenyl)-6-(trifluoromethoxy)-3,4-dihydro-2H-benzo[b][1,4]oxazine-2-carboxamide]	25 to 100	< 5
N#Cc1ccc2c(c1)NCC(C(=O)Nc1cc(O)c(C3CCCC3)cc1C(F)(F)F)O2 (centres unmarked) [Compound 39]	25 to 100	< 5
NCC#Cc1cc(C2CCCC2)c(O)cc1NC(=O)C1CNc2cc(OC(F)(F)F)ccc2O1 (centres unmarked) [Compound 40]	25 to 100	< 5
Cc1cnc(NC(=O)C2CNc3cc(OC(F)(F)F)ccc3O2)c(C#CCN(C)C)c1 (centres unmarked) [Compound 41]	25 to 100	< 5
CC(C)Oc1ccc(NC(=O)C2CNc3ccc(F)cc3O2)cc1O (centres unmarked) [Compound 42]	< 25	5 to 20
CN(C)CC#Cc1cc(N2C3CCC2CC3)ccc1NC(=O)C1CNc2cc(C#N)ccc2O1 (centres unmarked) [Compound 43, N-(4-(7-azabicyclo[2.2.1]heptan-7-yl)-2-(3-(dimethylamino)prop-1-ynyl)phenyl)-6-cyano-3,4-dihydro-2H-benzo[b][1,4]oxazine-2-carboxamide]	–	< 5
CCc1ccc(NC(=O)C2CNc3cc(OC(F)(F)F)ccc3O2)c(C#CCN(C)C)c1 (centres unmarked) [Compound 44]	> 100	< 5
Cc1ccc(NC(=O)C2CNc3cc(OC(F)(F)F)ccc3O2)c(C#CCN2CCC(F)(F)C2)c1 (centres unmarked) [Compound 45]	25 to 100	< 5
CC1CCN(Cc2cc(C3CCCC3)c(O)cc2NC(=O)C2CNc3ccccc3O2)CC1 (centres unmarked) [Compound 46]	> 100	< 5
O=C(Nc1ccc(OC(F)(F)F)c(O)c1)C1CNc2ccc(F)cc2O1 (centres unmarked) [Compound 47]	25 to 100	< 5
Cc1ccc(NC(=O)C2CNc3cc(C)ccc3O2)c(C#CCN(C)C)c1 (centres unmarked) [Compound 48]	25 to 100	< 5
CC(C)(C)c1ccc(NC(=O)C2CNc3cc(F)c(F)cc3O2)cc1O (centres unmarked) [Compound 49]	25 to 100	< 5
N#Cc1cc(C2CCCC2)c(O)cc1NC(=O)[C@@H]1CNc2ccc(F)cc2O1 [Compound 50]	25 to 100	< 5
N#Cc1ccc2c(c1)NCC(C(=O)Nc1cc(O)c(C3CCCC3)cc1CN1CCNCC1)O2 (centres unmarked) [Compound 51, 6-cyano-N-(4-cyclopentyl-5-hydroxy-2-(piperazin-1-ylmethyl)phenyl)-3,4-dihydro-2H-benzo[b][1,4]oxazine-2-carboxamide]	25 to 100	5 to 20
CN1CCN(Cc2cc(C3CCCC3)c(O)cc2NC(=O)C2CNc3ccccc3O2)CC1 (centres unmarked) [Compound 52, N-(4-cyclopentyl-5-hydroxy-2-((4-methylpiperazin-1-yl)methyl)phenyl)-3,4-dihydro-2H-benzo[b][1,4]oxazine-2-carboxamide]	25 to 100	< 5
CC(C)CC#Cc1cc(C2CCCC2)c(O)cc1NC(=O)C1CNc2cc(OC(F)(F)F)ccc2O1 (centres unmarked) [Compound 53]	25 to 100	< 5
O=C(Nc1cc(O)c(C2CCCC2)cc1C(F)(F)F)[C@@H]1CNc2cc(OC(F)(F)F)ccc2O1 [Compound 54]	25 to 100	< 5

Continued, values first:

Emax [%]	EC50 [µM]	Compound
25 to 100	< 5	Cc1ccc2c(c1)OC(C(=O)Nc1cc(O)c(C3(C)CCCCC3)cc1F)CN2 (centres unmarked) [Compound 2]
25 to 100	< 5	O=C(Nc1cc(O)c(C2CCCC2)cc1CN1CCCCC1)C1CNc2ccccc2O1 (centres unmarked) [Compound 3]
> 100	< 5	CCOC(=O)CCc1cc(C2CCCC2)c(O)cc1NC(=O)C1CNc2cc(OC(F)(F)F)ccc2O1 (centres unmarked) [Compound 4]
25 to 100	< 5	Cc1cc2c(cc1F)NCC(C(=O)Nc1cc(O)c(C(C)(C)C)cc1C(C)(C)C)O2 (centres unmarked) [Compound 6]
25 to 100	< 5	Cc1cc(C#CCN(C)C)c(NC(=O)C2CNc3cc(OC(F)(F)F)ccc3O2)cc1O (centres unmarked) [Compound 7]
25 to 100	< 5	CC(C)(C)c1cc(C(C)(C)C)c(NC(=O)C2CNc3cc(F)c(F)cc3O2)cc1O (centres unmarked) [Compound 8]
25 to 100	< 5	Cc1ccc(NC(=O)C2CNc3cc(OC(F)(F)F)ccc3O2)c(C#CCN2CCC(F)(F)CC2)c1 (centres unmarked) [Compound 9]
25 to 100	< 5	O=C(Nc1cc(O)c(C2CCCC2)cc1C#CCO)C1CNc2cc(OC(F)(F)F)ccc2O1 (centres unmarked) [Compound 12]
> 100	< 5	CC(C)(C)c1cc(C2CCCC2)c(O)cc1NC(=O)[C@H]1CNc2cc(C#N)ccc2O1 [Compound 13]
25 to 100	< 5	Cc1cc(C)c(NC(=O)C2CNc3cc(OC(F)(F)F)ccc3O2)c(C#CCN(C)C)c1 (centres unmarked) [Compound 15]
25 to 100	< 5	O=C(O)CCc1cc(C2CCCC2)c(O)cc1NC(=O)C1CNc2cc(OC(F)(F)F)ccc2O1 (centres unmarked) [Compound 16]
25 to 100	< 5	N#Cc1cc(C2CCCC2)c(O)cc1NC(=O)[C@H]1CNc2ccc(F)cc2O1 [Compound 17]
25 to 100	< 5	CC1(c2cc(F)c(NC(=O)C3CNc4cc(F)ccc4O3)cc2O)CCCCC1 (centres unmarked) [Compound 18]
25 to 100	< 5	CC1(c2cc(F)c(NC(=O)[C@@H]3CNc4ccccc4O3)cc2O)CCCCC1 [Compound 19]
25 to 100	< 5	CCc1cc(F)c(NC(=O)C2CNc3ccc(F)cc3O2)cc1O (centres unmarked) [Compound 20]
25 to 100	< 5	Cc1cc(C2CCCC2)c(O)cc1NC(=O)C1CNc2ccc(F)cc2O1 (centres unmarked) [Compound 21]
> 100	< 5	O=C(Nc1cc(O)c(C2CCCC2)cc1C#CCN1CCCC1)C1CNc2cc(OC(F)(F)F)ccc2O1 (centres unmarked) [Compound 22]
25 to 100	< 5	N#Cc1cc(C2CCCC2)c(O)cc1NC(=O)C1CNc2ccc(F)cc2O1 (centres unmarked) [Compound 23]
> 100	< 5	O=C(O)Cc1cc(C2CCCC2)c(O)cc1NC(=O)C1CNc2cc(OC(F)(F)F)ccc2O1 (centres unmarked) [Compound 24]
25 to 100	< 5	Cc1cc(C2CCCC2)c(O)cc1NC(=O)[C@@H]1CNc2cc(C#N)ccc2O1 [Compound 25]
25 to 100	< 5	Cc1ccc(NC(=O)C2CNc3cc(OC(F)(F)F)ccc3O2)c(C#CCN(C)C)c1 (centres unmarked) [Compound 26]
25 to 100	< 5	O=C(Nc1ccc(C2CC2)c(O)c1)C1CNc2ccccc2O1 (centres unmarked) [Compound 27]
25 to 100	< 5	O=C(Nc1cc(O)c(C2CCCC2)cc1C(F)(F)F)C1CNc2ccc(F)cc2O1 (centres unmarked) [Compound 31]
25 to 100	< 5	O=C(Nc1cc(O)c(C2CCCC2)cc1C(F)(F)F)[C@H]1CNc2cc(OC(F)(F)F)ccc2O1 [Compound 32]
25 to 100	< 5	CC(C)(C)c1ccc(NC(=O)C2CNc3cccc(F)c3O2)cc1O (centres unmarked) [Compound 33]
25 to 100	< 5	CN(C)CC#Cc1cc(C2CCCC2)c(O)cc1NC(=O)C1CNc2cc(C#N)ccc2O1 (centres unmarked) [Compound 34]
